Test results as given in patent US11299480B2, “2-arylsulfonamido-N-arylacetamide derivatized STAT3 inhibitors” (University of Hawaii, priority 2017, dated 2022).
Like-named read-outs stand apart in the source and are kept apart here. Blank lines part the entries; values can stand above or below the compound they belong to.

Tests used:
[1] = test system: MDA-MB-468; assay: CyQuant cell viability assay, MDA-MB-468; assay type: cell-based, human; conditions: MDA-MB-468, CyQuant, 0-10 μM, 72 h
Method: (§1) FIG. 6. Effects of select compounds of the present invention on cell viability. […] Cells were first grown in 6-well plates then were treated once with 0-10 μM of the indicated compounds for 72 h. Viable cells were assayed using CyQuant cell proliferation kit and plotted as % cell viability against concentration. Control (0) represents 0.05% DMSO-treated cells. Values, mean ± S.D. of 2-3 independent determinations.
(§2) Cells in 6-well or 96-well plates were treated with or without compounds for the indicated concentrations and time, and subjected to MTT assay or CyQuant cell proliferation assay (Invitrogen/ThermoFisher Scientific), or harvested and the viable cells were counted by trypan blue exclusion with phase-contrast microscopy.
(§3) Constitutive Stat3 activity promotes tumor cell growth and proliferation and survival (Darnell J E (2005) Nat Med. 11:595-6; Bowman T, et al., (2000) Oncogene 19:2474-2488). Some of the compounds of the present invention were tested against tumor cells harboring constitutively-active Stat3.

[2] = test system: pY705Stat3; assay: Constitutive Stat3 tyrosine phosphorylation, immunoblot, MDA-MB-468 cells; assay type: cell-based, human; conditions: MDA-MB-468, 5 μM, 1 h treatment (inhibition stated only for MDA-MB-231)
Method: (§4) FIG. 3. Effects of select compounds of the present invention on Stat3 DNA-binding activity and Stat3 tyrosine phosphorylation in cells. (FIG. 3A) EMSA analysis of Stat3 DNA-binding activity in nuclear extracts of equal total protein prepared from cells treated with DMSO (0 as control, Con), 5 or 10 μM of compounds for 1-34 h. Positions of Stat3:DNA complexes in gel are labeled. […] Positions of Stat3:DNA complexes or proteins in gel are shown; control (0 or Con) lane represents whole-cell lysates or nuclear extracts prepared from 0.05% DMSO-treated cells. […] Data are representative of 2-3 independent determinations.
(§5) All antibodies tested were purchased from Cell Signaling Technology.
(§6) Altogether, the new analogs show strong, albeit variable degrees of inhibition of constitutive Stat3 DNA-binding activity and Tyr phosphorylation in human tumor cells.

[3] = test system: pY705Stat3; assay: Constitutive Stat3 tyrosine phosphorylation, immunoblot, MDA-MB-231 cells; assay type: cell-based, human; conditions: MDA-MB-231, 5 μM, 1 h treatment
Method: as §4, §5, §6

[4] = target: Stat3 (Mus musculus, UniProt P42227); assay type: biochemical
Method: FIG. 1. Effect of select compounds of the present invention on Stat3 DNA-binding activity in vitro. […] Positions of Stat3:DNA complexes in gel are labeled; control lanes (0) represent nuclear extracts pre-treated with 10% DMSO.
(§7) Except where indicated, nuclear extracts were pre-incubated with compound for 30 min at room temperature prior to incubation with the radiolabeled probe for 30 min at 30° C. before subjecting to EMSA analysis. Where appropriate, bands corresponding to Stat3:DNA complexes were scanned and quantified for each concentration of compound using ImageJ and plotted as percent of control (DMSO) against concentration of compound, from which the IC50 values were derived.

[5] = test system: MDA-MB-231; assay: CyQuant cell viability assay, MDA-MB-231; assay type: cell-based, human; conditions: MDA-MB-231, CyQuant, 0-10 μM, 72 h
Method: as §1, §2, §3

[6] = test system: MCF7; assay: CyQuant cell viability assay, MCF7; assay type: cell-based, human; conditions: MCF7 (no aberrantly-active Stat3), CyQuant, 72 h
Method: as §1, §2, §3

[7] = in vitro; conditions: mouse, liver microsomes
[8] = test system: Caco-2 cells; assay: Cell membrane permeability, Caco-2 cells assay; conditions: for Caco-2 Cells Recovery B to A / Caco-2 Cells Permeability B to A: basolateral to apical; for Caco-2 Cells Recovery B to A / Caco-2 Cells Recovery A to B: second number of cell; for Caco-2 Cells Permeability A to B / Caco-2 Cells Recovery A to B: apical to basolateral; for Caco-2 Cells Permeability A to B / Caco-2 Cells Permeability B to A: first number of cell, 10^−6 cm/sec
[9] = Mouse liver microsomal (MLM) metabolic stability; conditions: mouse, liver microsomes
[10] = in vitro; conditions: human, Caco-2
[11] = Human liver microsomal (HLM) metabolic stability; conditions: liver microsomes
[12] = in vitro; conditions: human, liver microsomes
[13] = target: Stat3 (Homo sapiens (Human), UniProt P40763); assay: Stat3 DNA-binding activity in nuclear extracts of treated MDA-MB-231 cells, EMSA; assay type: cell-based; conditions: 10 μM
Method: as §4
as §7, with “The ^32P-labeled oligonucleotide probes used were hSIE (high affinity sis-inducible element from the c-fos gene, m67 variant, 5′-[…]) (SEQ ID NO: 1) that binds Stat1 and Stat3 and MGFe (mammary gland factor element from the bovine β-casein gene promoter, 5′-[…]) (SEQ ID NO: 2) for Stat1 and Stat5 binding. Except” for “Except”
Select compounds of the invention were investigated for their inhibitory effects of the active analogs on intracellular Stat3 signaling. […] Nuclear extracts were prepared and subjected to EMSA analysis for Stat3 DNA-binding activity. […] Stat3 DNA-binding activity in MDA-MB-231 cells was inhibited by both Examples 1 and 5 following treatment at 3 h, with little change at 1 h (FIG. 3A).

[14] = test system: Stat1; assay: Stat1 DNA-binding activity in vitro, EMSA (MGFe probe); assay type: biochemical; conditions: 10 μM or 0-30 μM compound
Text: FIG. 2. Effects of select compounds of the present invention on Stat1 and Stat5 DNA-binding activity. […] Positions of Stat:DNA complexes in gel are labeled; control lanes (0 or Con) represent nuclear extracts pre-treated with 10% DMSO. Data are representative of 1-3 independent determinations. […] Where appropriate, bands corresponding to Stat3:DNA complexes were scanned and quantified for each concentration of compound using ImageJ and plotted as percent of control (DMSO) against concentration of compound, from which the IC50 values were derived. In order to determine the specificity of select new analogs active against Stat3 activity, the inventors investigated the effects on the inhibition of other STAT family members, including Stat1 and Stat5 DNA-binding activity in vitro.

[15] = physchem
[16] = Aqueous solubility (PBS, SGF, SIF)
[17] = test system: pJak2; assay: Stat3-independent signaling, immunoblot of pJak2, MDA-MB-231 cells; assay type: cell-based, human; conditions: MDA-MB-231, 5 μM, 24 h treatment
Text: (§8) FIG. 4. Effects of select compounds of the present invention on Stat3-independent signal transduction events. […] Positions of proteins in gel are labeled; control lane (Con) represents whole-cell lysate prepared from 0.05% DMSO-treated cells.
as §5, §6

[18] = test system: pSrc; assay: Stat3-independent signaling, immunoblot of pSrc, MDA-MB-231 cells; assay type: cell-based, human; conditions: MDA-MB-231, 5 μM, 24 h treatment
Text: as §8, §5, §6

[19] = test system: pERK1/2; assay: Stat3-independent signaling, immunoblot of pERK1/2, MDA-MB-231 cells; assay type: cell-based, human; conditions: MDA-MB-231, 5 μM, 24 h treatment
Text: as §8, §5, §6

[20] = test system: Stat5; assay: Stat5 DNA-binding activity in vitro, EMSA (MGFe probe); assay type: biochemical; conditions: 10 μM or 0-30 μM compound
Text: FIG. 2. […] Positions of Stat:DNA complexes in gel are labeled; control lanes (0 or Con) represent nuclear extracts pre-treated with 10% DMSO. […] Where appropriate, bands corresponding to Stat3:DNA complexes were scanned and quantified for each concentration of compound using ImageJ and plotted as percent of control (DMSO) against concentration of compound, from which the IC50 values were derived.

[21] = Stat3 DNA-binding activity in vitro, nuclear extracts pre-incubated with compound 30 min at room temperature, hSIE probe, read-out: EMSA IC50
[22] = simulated gastric fluid (SGF), pH 1.2, simulated gastric fluid

Chain of Stat3 (Mus musculus, UniProt P42227) (P42227 2-770 limits assumed): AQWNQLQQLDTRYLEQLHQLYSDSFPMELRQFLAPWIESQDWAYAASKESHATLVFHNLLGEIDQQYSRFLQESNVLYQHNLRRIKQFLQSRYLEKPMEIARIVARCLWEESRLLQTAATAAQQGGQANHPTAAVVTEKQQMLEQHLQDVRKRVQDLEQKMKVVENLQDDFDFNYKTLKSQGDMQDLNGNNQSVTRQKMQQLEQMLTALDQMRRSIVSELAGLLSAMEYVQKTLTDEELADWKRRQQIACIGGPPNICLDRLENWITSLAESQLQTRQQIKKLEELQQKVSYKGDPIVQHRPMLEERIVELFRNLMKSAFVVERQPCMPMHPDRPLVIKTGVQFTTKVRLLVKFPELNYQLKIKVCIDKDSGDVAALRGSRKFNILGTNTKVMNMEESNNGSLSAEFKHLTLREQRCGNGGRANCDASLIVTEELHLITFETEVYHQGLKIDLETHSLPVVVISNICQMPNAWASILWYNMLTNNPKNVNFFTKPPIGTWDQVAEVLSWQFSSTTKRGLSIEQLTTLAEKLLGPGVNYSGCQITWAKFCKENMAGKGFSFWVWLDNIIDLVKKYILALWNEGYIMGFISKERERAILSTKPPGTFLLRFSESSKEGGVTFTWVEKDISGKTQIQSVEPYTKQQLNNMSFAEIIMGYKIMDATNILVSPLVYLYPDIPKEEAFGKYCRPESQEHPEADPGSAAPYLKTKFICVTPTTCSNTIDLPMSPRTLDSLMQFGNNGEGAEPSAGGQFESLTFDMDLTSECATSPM
Chain of Stat3 (Homo sapiens (Human), UniProt P40763) (P40763 whole entry): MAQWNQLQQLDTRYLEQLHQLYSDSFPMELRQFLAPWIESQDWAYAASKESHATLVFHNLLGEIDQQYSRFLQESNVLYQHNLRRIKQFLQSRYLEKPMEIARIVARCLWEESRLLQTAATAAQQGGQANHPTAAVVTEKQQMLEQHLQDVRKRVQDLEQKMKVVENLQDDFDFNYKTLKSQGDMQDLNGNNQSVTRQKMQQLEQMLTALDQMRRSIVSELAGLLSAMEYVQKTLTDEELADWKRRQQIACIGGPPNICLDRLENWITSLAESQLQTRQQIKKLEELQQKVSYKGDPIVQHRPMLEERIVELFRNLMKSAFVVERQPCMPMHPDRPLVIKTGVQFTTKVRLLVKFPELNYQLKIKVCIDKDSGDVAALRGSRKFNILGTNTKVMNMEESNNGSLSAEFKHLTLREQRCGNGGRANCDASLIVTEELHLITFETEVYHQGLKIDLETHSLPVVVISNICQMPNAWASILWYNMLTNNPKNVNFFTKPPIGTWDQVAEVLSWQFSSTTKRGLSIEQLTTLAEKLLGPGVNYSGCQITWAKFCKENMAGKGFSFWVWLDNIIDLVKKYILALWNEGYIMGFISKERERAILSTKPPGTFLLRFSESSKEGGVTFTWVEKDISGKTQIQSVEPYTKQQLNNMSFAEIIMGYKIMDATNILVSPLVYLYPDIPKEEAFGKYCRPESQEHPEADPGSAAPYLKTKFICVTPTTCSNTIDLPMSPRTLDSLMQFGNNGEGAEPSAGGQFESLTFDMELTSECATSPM

SMILES: C[C@H](C(=O)N(Cc1ccc(C2CCOCC2)cc1)c1ccc(C(=O)[O-])c(O)c1)N(C)S(=O)(=O)c1c(F)c(F)c(F)c(F)c1F.[Na+] [Example 59, Sodium (R)-2-hydroxy-4-(2-((2,3,4,5,6-pentafluoro-N-methylphenyl)sulfonamido)-N-(4-(tetrahydro-2H-pyran-4-yl)benzyl)propanamido)benzoate]
half-life [7]: ≤ 5 min
Caco-2 Cells Recovery B to A [8]: 40%
Metabolic Stability Half-Life MLM [9]: 4 min
Papp B→A [10]: 0.7 ×10⁻⁶ cm/s
recovery [10]: 31%
Metabolic Stability Half-Life HLM [11]: 5 min
half-life [12]: ≤ 5 min

SMILES: C[C@@H](C(=O)N(Cc1ccc(C2CCCCC2)cc1)c1ccc(C(=O)O)c(O)c1)N(C)S(=O)(=O)c1c(F)c(F)c(F)c(F)c1F [Example 5, (S)-4-(N-(4-Cyclohexylbenzyl)-2-((2,3,4,5,6-pentafluoro-N-methylphenyl)sulfonamido)propan-amido)-2-hydroxybenzoic acid]
Stat3 DNA-binding activity in MDA-MB-231 cells ([13]; 1 h treatment): little change
Stat3 DNA-binding activity in MDA-MB-231 cells ([13]; 3 h treatment): inhibited
Stat3 DNA-binding activity in MDA-MB-231 cells ([13]; 24 h treatment): inhibited
effect on Stat1 DNA-binding activity [14]: inhibited Stat1 activity to a moderate extent

SMILES: C[C@H](C(=O)N(Cc1ccc(C2CCCCC2)cc1)c1ccc(C(=O)[O-])c(O)c1)N(C)S(=O)(=O)c1c(F)c(F)c(F)c(F)c1F.[Na+]
half-life [7]: ≤ 5 min
Caco-2 Cells Permeability A to B [8]: 0
Caco-2 Cells Recovery A to B [8]: 6%
Caco-2 Cells Permeability B to A [8]: 0
Caco-2 Cells Recovery B to A [8]: 2%
Caco-2 permeability ([8]; compounds with cyclohexyl group instead of THP ring): no appreciable permeability
Metabolic Stability Half-Life MLM [9]: 5 min
Metabolic Stability Half-Life HLM [11]: 4 min
solubility [15, 22]: 1.3 µg/mL
solubility in PBS buffer pH 7.4 [16]: 127 μg/mL
solubility in simulated intestinal fluid (SIF) [16]: 127 µg/mL
Solubility PBS ([16]; PBS buffer pH 7.4): 127 micrograms/milliliter
Solubility SIF ([16]; simulated intestinal fluid): 127 micrograms/milliliter
half-life [12]: ≤ 5 min

SMILES: C[C@H](C(=O)N(Cc1ccc(C2CCCCC2)cc1)c1ccc(C(=O)O)cc1Cl)N(C)S(=O)(=O)c1c(F)c(F)c(F)c(F)c1F [Example 40, (R)-3-chloro-4-(N-(4-cyclohexylbenzyl)-2-((2,3,4,5,6-pentafluoro-N-methylphenyl)sulfonamido)propanamido)benzoic acid]
effect on pJak2 [17]: little effect
effect on pSrc [18]: little effect
effect on pERK1/2 [19]: little effect

SMILES: C[C@H](C(=O)N(Cc1ccc(C2CCOCC2)cc1)c1ccc(C(=O)O)c(O)c1)N(C)S(=O)(=O)c1c(F)c(F)c(F)c(F)c1F [Example 57, (R)-2-Hydroxy-4-(2-((2,3,4,5,6-pentafluoro-N-methylphenyl)sulfonamido)-N-(4-(tetrahydro-2H-pyran-4-yl)benzyl)propanamido)benzoic acid]
effect on Stat5 DNA-binding activity [20]: minimum effect
IC50 [4, 21]: 5 ± 0.8 µM

SMILES: O=C(O)c1ccc(N(Cc2ccc(C3CCOCC3)cc2)C(=O)[C@H]2CCCN2S(=O)(=O)c2c(F)c(F)c(F)c(F)c2F)c(F)c1 [Example 60, (R)-3-Fluoro-4-(1-((perfluorophenyl)sulfonyl)-N-(4-(tetrahydro-2H-pyran-4-yl)benzyl)pyrrolidine-2-carboxamido)benzoic acid]
half-life [7]: 26 min
Caco-2 Cells Permeability A to B [8]: 0.1
Caco-2 Cells Recovery A to B [8]: 8%
Caco-2 Cells Permeability B to A [8]: 0.1
Caco-2 Cells Recovery B to A [8]: 67%
Papp [10]: 0.2 ×10⁻⁶ cm/s
half-life [12]: 54 min

The next lines start with results.

IC50 ([4]; EMSA, read-out: IC50, inhibition of Stat3 DNA-binding activity in vitro): 2.4 µM
IC50 [4, 21]: 2.4 ± 0.4 µM
SMILES: O=C(O)c1ccc(N(Cc2ccc(C3CCCCC3)cc2)C(=O)[C@H]2CCCN2S(=O)(=O)c2c(F)c(F)c(F)c(F)c2F)cc1O [Example 25, (R)-4-(N-(4-Cyclohexylbenzyl)-1-((pentafluorophenyl)sulfonyl)pyrrolidine-2-carboxamido)-2-hydroxybenzoic acid]
cell viability [1]: suppressed the viability
pY705Stat3 levels [2]: only inhibited pY705Stat3 levels in MDA-MB-231
pY705Stat3 levels [3]: inhibited pY705Stat3 levels
cell viability [5]: suppressed the viability
cell viability [6]: only weakly or not inhibited

half-life [7]: 18 min
Caco-2 Cells Permeability A to B [8]: 0.2
Caco-2 Cells Recovery A to B [8]: 34%
Caco-2 Cells Permeability B to A [8]: 0.2
Caco-2 Cells Recovery B to A [8]: 60%
Papp [10]: 0.1 ×10⁻⁶ cm/s
solubility ([15]; PBS buffer, pH 7.4, aqueous buffer): 132 µg/mL
solubility [15, 22]: 0.4 µg/mL
solubility ([15]; simulated intestinal fluid (SIF), fassgf or other biorelevant): 129 µg/mL
half-life [12]: 15 min
SMILES: O=C([O-])c1ccc(N(Cc2ccc(C3CCOCC3)cc2)C(=O)[C@H]2CCCN2S(=O)(=O)c2c(F)c(F)c(F)c(F)c2F)cc1O.[Na+]

IC50 [4, 21]: 7.2 ± 3.4 µM
SMILES: O=C(O)c1ccc(N(Cc2ccc(C3CCCCC3)cc2)C(=O)[C@@H]2CCCN2S(=O)(=O)c2c(F)c(F)c(F)c(F)c2F)cc1O [Example 26, (S)-4-(N-(4-Cyclohexylbenzyl)-1-((pentafluorophenyl)sulfonyl)pyrrolidine-2-carboxamido)-2-hydroxybenzoic acid]
pY705Stat3 levels [2]: only inhibited pY705Stat3 levels in MDA-MB-231
pY705Stat3 levels [3]: inhibited pY705Stat3 levels
